Tests used:
rat NPY Y2 mRNA = test: Hyperoxia/ischemia-induced retinal neovascularization (retinopathy) in newborn rats; assay type: in vivo; conditions: for retinal capillary vessel formation in fluorescein images (FIG. 3): fluorescence microscopy of flat-mounted retinas; for Mean ± SD of quantitated neovascularization (amount of retinal vessels crossed by a constant length line): newborn Sprague Dawley rats, cyclic hyperoxia 40%/80% then room air, intraperitoneal treatment, eyes collected at age 20 days
Source text: The present study was undertaken to determine the impact of NPY Y2 receptor targeted intervention on neovascularization and development of retinopathy. Development of retinopathy was induced to newborn rats by cyclic hyperoxia and following relative ischemia-induced retinal neovascularization. Hyperoxemia is toxic to developing retinal vessels causing damage and hypoxia in the retina. After moving to normal air, relative hypoxia follows further promoting neovascularization of the retina.
Three groups of rat puppies were subjected for different treatments; 1) vehicle, 2) NPY Y2 receptor targeted antisense oligonucleotide sequence, and 3) scramble oligonucleotide sequence containing the same oligonucleotides as NPY Y2 receptor targeted antisense oligonucleotide sequence. The treatments were administered intraperitoneally. The retinal vessels were investigated and retinopathic changes were compared between treatment groups.
Retinopathy was assessed after injection of fluorescent-labelled dextran to the circulation. The eyes were flat-mounted on slides and the retinal vessels were visualized and investigated by fluorescence microscopy. Statistical differences were calculated between the study groups.
Study protocol was approved by the Joint Ethics Committee of Turku University. Development of retinopathy was induced to newborn rats (Sprague Dawley) by cyclic hyperoxia and following relative ischemia. Hyperoxia is toxic to developing retinal vessels causing damage and hypoxia in the retina, which induces neovascularization. After moving to normal air, relative hypoxia follows further promoting neovascularization of the retina. Hypoxia is one of the major causes of retinal neovascularization in human retinopathies also. The newborn rats were kept in a hyperoxic incubator with their mothers. Retinal neovascularization was induced simultaneously for all three groups of puppies. One treatment group consisted originally of 7 puppies, which underwent cyclic hyperoxia at the age of 3 days, continued until at the age of 14 days and remained in normal room air from the age of 14 to 17 days. The amount of oxygen inside the incubator was kept at 40% and 80% in 12 hour cycles for 10 days (days from 3 to 13).
The three groups of puppies were subjected for different treatments; 1) plain vehicle, 2) NPY Y2 receptor targeted antisense oligodeoxynucleotide sequence (5′-CCTCTGCACCTAATGGGCCC -3′ (SEQ ID NO:38), containing 20 thioate modified bases) diluted in vehicle and 3) scramble oligodeoxynucleotide sequence containing the same deoxynucleotides as NPY Y2 receptor targeted antisense oligodeoxynucleotide sequence but in a random order (5′-CCATGGTAATCCGCCGCTCC-3′ (SEQ ID NO:39), containing 20 thioate modified bases) diluted in vehicle. The treatments were administered intraperitoneally. The retinal vessels were investigated and retinopathic changes were compared between treatment groups. The used NPY Y2 receptor targeted antisense deoxynucleotide sequence was designed complementary to next 20 bases from NPY Y2 gene transcription initiation codon (ATG).
At the age of 20 days, rats were decapitated and eyes were collected. Retinopathy and retinal neovascularization was assessed after an injection of fluorescent-labelled dextran to the circulation trough heart puncture. One eye from each puppy was used for visualization of retinal vessels. The eyes were flat-mounted on slides and the retinal vessels were visualized and investigated by fluorescence microscopy. Pictures of retinas were acquired using a Leica DMR/DC100 microscope and Leica DC Wiever software.
The amount of retinal capillaries was analyzed by counting the amount of vessels crossed by a constant length line using plot profile analysis (Image-J 2.6 program). Each retina was analyzed in 3-5 representative areas and the mean values were used for further statistical analysis. Only unfolded retinal preparations were used in order to avoid artificial images of neovascularization. […]

hTERT-HUVEC cells = test: Endothelial tube formation assay after liposomal transfection; assay type: cell-based, human; conditions: for mean ±SEM tube number/well, single nucleotide assay 4A / mean ±SEM tube number/well, single nucleotide assay 4b: oligonucleotide 1 μM, DOTAP/DOPE, 4 h transfection, 3 h on Matrigel; for mean ±SEM tube number/well, single nucleotide assay 4A: non-treated control 60±1.8; for mean ±SEM tube number/well, single nucleotide assay 4b: repeated set, non-treated control 58.0±2.9
Method: A further experiment was carried out in order to study the effect of single antisense molecules and their combinations in the prevention of endothelial cell tube formation by immortal human umbilical vein endothelial cells (hTERT-HUVECs).
Immortal human umbilical vein endothelial cells (hTERT-HUVECs) were obtained from Geron Corporation (Menlo Park, Calif., U.S.A.). hTERT-HUVECs were maintained on a gelatin-coated 100-mm dishes (Corning Costar, N.Y., U.S.A) in growth medium, composed of M199 medium (Gibco, Paisley, Scotland) supplement with 15% (v/v) heat-inactivated fetal bovine serum (Gibco BRL), 2 mM L-glutamine (Gibco BRL), 100 units/ml penicillin/streptomycin (Gibco BRL), 10 units/ml heparin (Sigma) and 20 μg/ml endothelial cell growth factor (Roche Biomolecules) at 37° C. in a humified incubator with 5% CO2 atmosphere. Experiments were performed with cells between passages 20 and 24.
The following phosphorothioate oligonucleotides were synthesized: human neuropeptide Y2-receptor mRNA antisense molecules
N-(1-(2,3-dioleoyloxy)propyl)-N,N,N-trimethyl ammonium methylsulfate (DOTAP) and 1,2-dioleoyl-3-phosphatidylethanolamine (DOPE) were purchased from Avanti Polar Lipids. Cationic liposomes composed of DOTAP/DOPE (1:1 by mol) were prepared as previously described (Ruponen et al., 2001 (43)).
hTERT-HUVECs (5×10^4 cells/well) were seeded onto gelatin-coated 48-multiwell plates (Corning Costar, N.Y., U.S.A) and incubated overnight. For transfection, the growth medium was replaced with 400 μl of transfection medium (M199 medium supplement with 2 mM L-glutamine and 100 units/ml penicillin/streptomycin). Oligonucleotides (final concentration 1 μM) and DOTAP/DOPE liposomes in sterile water were first diluted in MES-HEPES buffered saline (50 mM MES, 50 mM HEPES, 75 mM NaCl, pH 7.2) and then mixed together at a charge ratio +1. The transfection mixture was allowed to stand at room temperature for 20 min and the oligonucleotide/liposome complexes (100 μl) were added dropwise to each well.
After transfection for 4 h hTERT-HUVECs were harvested after trypsin treatment, suspended in growth medium (200 μl) and seeded in growth factor-reduced Matrigel (BD Biosciences) coated 96-well plates (Corning Costar, N.Y., U.S.A). After incubation for 3 h cells were fixed in 4% paraformaldehyde. The formation of tubular structures in each well (7 fields/well) was digitally captured using a Nicon Eclipse TE300 Inverted Microscope (Nicon, Tokyo, Japan) equipped with a Nicon F-601 digital camera (Nicon, Tokyo, Japan). Photographs were taken at 4× magnification.
The efficacy in prevention of formation of tubular structures by hTERT-HUVECs of all 5 synthesized antisense molecules were compared against each others alone and in combination. The number of tubular structures was analyzed by using Adobe Photoshop 5.5 (Adobe Systems Inc., San Jose, Calif., U.S.A) and the results were expressed as means ±SEM of three independent experiments. A set of three experiments was repeated.

5′-CCATGGTAATCCGCCGCTCC-3′ (CCATGGTAATCCGCCGCTCC; DNA, all phosphorothioate, methylation of C not given here; listed as Rattus sp.) [Scramble, scramble oligodeoxynucleotide, same deoxynucleotides as the Y2 antisense in random order, reference compound]
retinal capillary vessel formation in fluorescein images (FIG. 3) (rat NPY Y2 mRNA): irregular and disrupted | Mean ± SD of quantitated neovascularization (amount of retinal vessels crossed by a constant length line) (rat NPY Y2 mRNA): 31.12 ± 0.93 | difference in retinal neovascularization versus vehicle treatment group (rat NPY Y2 mRNA; post hoc comparison): no difference

5′-CCCAGGTTATCCACGTCTCC-3′ (DNA, all phosphorothioate, methylation of C not given here; listed as Homo sapiens) [AS-1 control, control oligonucleotide for AS-1, reference compound]
mean ±SEM tube number/well, single nucleotide assay 4A (hTERT-HUVEC cells): 49.3±8.2 tube number/well | mean ±SEM tube number/well, single nucleotide assay 4b (hTERT-HUVEC cells): 57.0±7.0 tube number/well

5′-CCTCTGCACCTAATGGGCCC -3′ (antisense CCTCTGCACCTAATGGGCCC; DNA, all phosphorothioate, methylation of C not given here; listed as Rattus sp.) [Y2-antisense, NPY Y2 receptor targeted antisense oligodeoxynucleotide corresponding to rat NPY Y2 mRNA]
retinal capillary vessel formation in fluorescein images (FIG. 3) (rat NPY Y2 mRNA): regular and continuous | Mean ± SD of quantitated neovascularization (amount of retinal vessels crossed by a constant length line) (rat NPY Y2 mRNA): 24.58 ± 0.84 | mean difference in neovascularization compared to vehicle treatment group (rat NPY Y2 mRNA; post hoc Tukey HSD, p<0.001, 95% CI 2.48-8.33): 5.40 | mean difference in neovascularization compared to scramble treatment group (rat NPY Y2 mRNA; post hoc Tukey HSD, p<0.001, 95% CI 3.76-9.31): 6.53

5′-CCTCTGCACCTATTGGACCC-3′ (DNA, all phosphorothioate, methylation of C not given here; listed as Homo sapiens) [AS-1, human neuropeptide Y2-receptor mRNA antisense molecule]
mean ±SEM tube number/well, single nucleotide assay 4A (hTERT-HUVEC cells): 44.0±5.6 tube number/well | mean ±SEM tube number/well, single nucleotide assay 4b (hTERT-HUVEC cells): 54.3±10.1 tube number/well

5′-GGCCACTGTTCTTTCTGACC-3′ (DNA, all phosphorothioate, methylation of C not given here; listed as Homo sapiens) [AS-3, human neuropeptide Y2-receptor mRNA antisense molecule]
efficacy in prevention of tubular structures formation by hTERT-HUVECs (ranking in words) (hTERT-HUVEC cells; FIGS. 4A-4D): best efficacy | mean ±SEM tube number/well, single nucleotide assay 4A (hTERT-HUVEC cells): 28±7.1 tube number/well | mean ±SEM tube number/well, single nucleotide assay 4b (hTERT-HUVEC cells): 23.0±6.7 tube number/well

5′-GTTTGTGGCCCGTATTGTTCC-3′ (DNA, all phosphorothioate, methylation of C not given here; listed as Homo sapiens) [AS-2, human neuropeptide Y2-receptor mRNA antisense molecule]
mean ±SEM tube number/well, single nucleotide assay 4A (hTERT-HUVEC cells): 70.3±11.3 tube number/well | mean ±SEM tube number/well, single nucleotide assay 4b (hTERT-HUVEC cells): 75.0±7.5 tube number/well
